# Laboratory results from patent US11116759B2, “Method of treating cancer” (Exelixis, Inc., priority 2011, dated 2021).
# Legend:
# [1] = system: endothelial cells and tumor cells; experiment: Apoptosis of endothelial cells and tumor cells; type: cell-based
# [2] = system: melanoma, including ocular melanoma; experiment: Phase 2 randomized discontinuation trial in adults with melanoma (NCT00940225); type: in vivo, human
# Method: Compound 1 was used in a Phase 2 randomized discontinuation trial study of adults with melanoma, including ocular melanoma (See NCT00940225, Abstract 371). Compound 1 was administered at a daily dose of 100 mg (125 mg salt equivalent). The study endpoints included objective response rate (ORR) per mRECIST in the lead-in stage, and progression-free survival in the randomized stage. The eligibility criteria included: (a) pathologically and radiologically confirmed diagnosis of advanced melanoma; (b) cutaneous, mucosal, or ocular subtypes; (c) up to two lines of prior systemic treatment (not including immunotherapy); (d) documented progressive disease and measurable target lesion(s) per mRECIST; and (e) no known brain metastases. Tumors were assessed by CT/MRI at baseline and every 6 weeks thereafter. Archival tumor tissue was retained for genotyping and biomarker analysis.
# xenograft tumor models = experiment: Xenograft tumor models; type: in vivo
# [3] = Phase 1 clinical study, tolerability; type: in vivo; conditions: most common adverse events fatigue, diarrhea, anorexia, rash, palmar-plantar erythrodysesthesia
# [4] = system: pancreatic neuroendocrine tumor; experiment: Murine pancreatic neuroendocrine tumor model; type: in vivo
structure (smiles),measurement,setting,value
"COc1cc2nccc(Oc3ccc(NC(=O)C4(C(=O)Nc5ccc(F)cc5)CC4)cc3)c2cc1OC [Compound 1, N-(4-{[6,7-bis(methyloxy)quinolin-4-yl]oxy}phenyl)-N′-(4-fluorophenyl)cyclopropane-1,1-dicarboxamide]",Induction of apoptosis,[1],rapidly induces apoptosis
same,Patients with objective tumor shrinkage,"[2]; all enrolled patients with melanoma, daily dose of 100 mg",sixty
same,Best response,"[2]; ocular melanoma Patients 5, 6, 14, 15, 18, 20, 22, 26, 28 and 29 (FIGS. 4A and 4B)",stable disease
same,Patients with evidence of objective tumor regression,"[2]; patients with ocular cancer, six months",48%
same,Disease control rate,"[2]; patients with ocular cancer, week 12",14%
same,Patients showing a positive disease control rate,[2]; patients with ocular melanoma who were tested (FIG. 3),Eight of the fourteen
same,Partial response observed,"[2]; patients with ocular melanoma, week 6",One
same,Effect on tumor,xenograft tumor models,causes tumor regression
same,Tolerability,[3],generally well-tolerated
same,Overall survival,[4],substantially improves overall survival
same,Tumor invasiveness and metastasis,[4],significantly reduces tumor invasiveness and metastasis
